Experimental data as given in patent publication US6441027B1, “Method of regulating the female reproductive system through angiogenesis inhibitors” (Children's Medical Center Corporation, priority 1996, dated 2002).
“Also recorded” adds a separate entry of the source. Read-outs that look alike come from different tables or passages of the source.

Assays:
[1] = test system: inseminated C57BL/6 mice; format: in vivo, mouse
Text: (§1) C57BL/6 male and female mice greater than seven weeks old were obtained from Takonic (Germantown, N.Y.). The mice were acclimated for at least five days prior to mating and housed in a twelve hour on and twelve hour off light schedule. The mice were mated in the evenings and vaginal plugs were checked for the next morning. Mating in mice is normally detected by the occurrence of vaginal plugs, which are formed by a mixture of the secretions of the vesicular and coagulating glands of the male and usually fill the vagina from cervix to vulva. The day of plugging was labeled Embryonic day 0 (E0). All animal studies were conducted according to the protocols approved by the Animal Ethics Committee of Children's Hospital. Plugged female mice were randomized and received either AGM-1470 30 mg/kg s.c. or saline on E1, 7, or 14. The dependence of female reproductive system on angiogenesis was examined by treating sexually mature inseminated and cycling mice with selective angiogenesis inhibitor AGM-1470.
Mice were sacrificed on either E6, 9, 13 or 18 (one day prior to term gestation). Fetal viability was assessed and statistical analysis was performed with a Fisher's Exact Test.

[2] = test system: gravid uteri; test: Gravid uterine weight after single dose; format: in vivo, mouse
Text: as §1
Gravid uteri and ovaries were resected enbloc and weighed. Gravid uterine weight (grams wet weight, mean SE, n=3/day) in the control group increased exponentially from E6 (0.20±0.01), to E9 (0.53±0.05), E13 (3.78±0.36), and E18 (12.87±0.62). Gravid uterine weights from mice treated with AGM-1470 on E1 had no weight increase after E9 [E6 (0.29±0.01), E9 (0.63±0.01), E13 (0.72±0.08, p<0.05), and E18 (0.68±0.02, p<0.05)]. Gravid uterine weights from mice treated with AGM-1470 on E7 increased initially but then regresses after E13 [E9 (0.71±0.01), E13 (2.03±0.14, p<0.05), and E18 (1.08±0.06, p<0.05)].

[3] = test system: inseminated mice; test: Gross morphology and hematoxylin/eosin histology of gravid uteri, embryos and ovaries; format: in vivo, mouse
Experimental: FIGS. 1A-1I show the gross morphology of gravid mouse uteri. Inseminated mice were treated with AGM-1470 30 mg/kg s.c. or saline on Embryonic day 1 (E1) or E7, and mice were sacrificed at E9, 13 or 18. FIG. 1A, 1B, and 1C show the normal pattern of growth of fetuses on E9, E13 and E18.
FIGS. 2A-2F show hematoxylin/eosin staining of mouse embryos on E9. Inseminated mice were treated with AGM-1470 […] s.c. or saline on E1 or E7, and mice were sacrificed at E9. Uteri were resected and stained with hematoxylin/eosin as described in the material and methods section. […] (P−placenta, D=decidua).
Gravid uteri and ovaries were resected enbloc, weighed, fixed and Carnoy's fixative, and embedded in paraffin according to standard histological techniques. Sections were cut at 6 to 10 micrometers and stained with hematoxylin and eosin. When AGM-1470 was injected on E14, fetuses were allowed to come to term.

[4] = test system: intersite endometrium; test: Factor VIII microvessel density of intersite endometrium on E6; format: in vivo, mouse
Experimental: To test this hypothesis, mice were treated with AGM-1470 on E1 and sacrificed at E6, a time point prior to placental formation. The uteri of the mice were examined by antibodies to Factor VIII and PCNA to determine if there was any difference in the degree of endometrial angiogenesis or the proliferative response of the decidua induced by trophoblast invasion. However, in the decidua there was a 50% decrease in the proliferation of stromal cells in the AGM-1470 treated mice as compared to control (PCNA staining/X630 field in control was 48%±3, n=4, versus 24%±5, n=4, P≦0.005 in AGM-1470 treated mice. See FIG. 4A and 4B). […]
To determine microvessel density, Carnoy's-fixed tissue sections were pretreated with 2 microgram/ml Proteinase K (Boehringer Mannheim, Mannheim, Germany) at 37° Celsius for 15 minutes before staining with a rabbit polyclonal antibody against mouse factor VIII (Dako, Carpinteria, Calif.). Positive staining was detected by incubating sequentially with a secondary antibody against rabbit conjugated to horseradish peroxidase (Dako) and diaminobenzidine tetrahydrochloride (DAB) (Dako) as a chromagen. […] Microvessel density was determined by light microscopy. Each count was expressed as the number of microvessels identified within a selected field. Ten fields per section were counted. […]

[5] = test system: plugged mice; test: Reversibility: remating after fetal resorption; format: in vivo, mouse; conditions: 30 mg/kg on E1 (n=3) or E7 (n=3), remated six weeks after E18 laparotomy
Experimental: To establish long-term safety, the course of recovery of the reproductive system after fetal resorption was studied. Six plugged mice were injected with 30 mg/kg AGM-1470 on E1 (n=3) or E7 (n=3) and then anesthetized on E18 in a methoxyflurane (Pittman-Moore, Mandelein, Ill.) chamber so that a laparotomy could be performed. The uteri were inspected to confirm the presence of resorption cites. The incisions were closed with a running 3-0 ethelon™ black monofilament nylon suture (Ethicon, Somerville; N.J.). Animals were observed until fully recovered. After an additional six weeks the mice were remated to determine their ability to become inseminated and deliver a normal litter. […] Therefore, there is a functional recovery of the uterus after AGM-1470 treatment on E1 or E7.

[6] = 30 mg/kg s.c. every other day, greater than 100 days of therapy; cited from earlier work

In the case of `CO[C@@H]1[C@H](OC(=O)NC(=O)CCl)CC[C@]2(CO2)[C@H]1[C@@]1(C)O[C@@H]1CC=C(C)C` [AGM-1470, O-chloroacetylcarbamoyl fumagillol], the “toxicity to the pregnant mothers” value ([1]; 30 mg/kg single dose) is reported as “no signs of toxicity”, the birth defects ([1]; drug given to pregnant mice during pregnancy) is reported as “birth defects were not documented” and the “fetal resorption on E18” value ([1]; single dose 30 mg/kg s.c. on E1 (pre-implantation), n=69 embryos) is reported as 100%. The “fetal resorption on E18” value ([1]; single dose 30 mg/kg s.c. on E7 (post-implantation), n=36) was 100%, the litters ([1]; single dose 30 mg/kg s.c. on E14, n=46) was “normal litters” and the gravid uterine weight ([2]; treated on E1, weighed E6, n=3) was 0.29±0.01 grams wet weight. The gravid uterine weight ([2]; treated on E1, weighed E9, n=3) was 0.63±0.01 grams wet weight, the gravid uterine weight ([2]; treated on E1, weighed E13, n=3) was 0.72±0.08 grams wet weight and the gravid uterine weight ([2]; treated on E1, weighed E18, n=3) was 0.68±0.02 grams wet weight. The gravid uterine weight ([2]; treated on E7, weighed E9, n=3) was 0.71±0.01 grams wet weight, the gravid uterine weight ([2]; treated on E7, weighed E13, n=3) was 2.03±0.14 grams wet weight and the gravid uterine weight ([2]; treated on E7, weighed E18, n=3) was 1.08±0.06 grams wet weight. The “placental development (histology)” value ([3]; 30 mg/kg on E1) was “failure of placental development”, the “placental development (histology)” value ([3]; 30 mg/kg on E7) was “inhibition of placental and fetal development; also recorded: decrease in nucleated red blood cells and labyrinth structure in the placenta” and the “gross morphology of gravid uteri” value ([3]; 30 mg/kg s.c. on E7) was “hemorrhage around the implantation sites by E13; also recorded: resorption by E18”. For the same compound, the “fetal histology on E9” value ([3]; both treated groups (E1 or E7)) was “Fetal disorganization”, the “embryo histology on E9” value ([3]; injected on E1) was “small, disorganized embryo” and the “nucleated red blood cells in E9 embryos” value ([3]; injected on E7) was “reduced nucleated red blood cells in the embryo; also recorded: marked decrease in nucleated red blood cells”. The “histology of the ovaries” value ([3]; single dose on E1 or E7, all time points) was “appeared normal”, the “gross morphology of gravid uteri” value ([3]; treated on E1, after E9) was “failure of further growth with resorption” and the “decrease in microvessel density in intersite endometrium vs control” value ([4]; treated on E1, sacrificed E6) was 52%. The “microvessel density in intersite endometrium” value ([4]; treated on E1, sacrificed E6, n=4) was 57±13 vessels/X250 field, the litters after remating [5] was “normal litters in all mice” and the “toxicity of dosing schedule” value [6] was “no evident toxicity”.
